{"source": "paper PMC10200060", "about": "“Inhibition of DAMP actions in the tumoral microenvironment using lactoferrin-glycyrrhizin conjugate for glioblastoma therapy” (Biomaterials Research, 2023)", "key": {"[1]": {"test_system": "U87MG", "assay": "HMGB1-mediated GBM cell proliferation (CCK-8)", "type": "cell-based, human", "protocol": "(§1) Cell viability was determined using a cell counting kit-8 (CCK-8). U87MG and HUVECs (seeding density: 0.75 × 10^4 cells per well) in 96-well culture plates were treated with GL, Lf, or Lf-GL (25 to 200 × 10^–6 M of GL equivalent concentration) and were incubated for different periods of time (24, 48, and 72 h). After washing with PBS, they were treated with a cell culture medium containing a CCK-8 assay kit (Abbkine) and were incubated at 37 °C and 5% CO2 for 2 h. Then, absorbance was measured at 450 nm in a micro-plate reader (VLBL00D0, Thermo Fisher Scientific). Results were quantified using Sigma Plot (Systat Software, USA). To determine the effect of extracellular HMGB1 in GBM and endothelial cell proliferation, U87MG and HUVECs were seeded in 96-well culture plates (seeding density: 0.75 × 10^4 cells per well) and GL, Lf, or Lf-GL (50 × 10^–6 M GL equivalent concentration) were added to cells with or without HMGB1 protein (U87MG: 0.1 μg mL^−1, and HUVEC: 1 μg mL^−1). Cells were incubated for different periods of time (24, 48, and 72 h)."}, "[2]": {"test_system": "U87MG", "assay": "Wound-healing scratch (cell migration) assay", "type": "cell-based, human", "conditions": "HMGB1 0.1 μg mL^−1, 24 h", "protocol": "A wound-healing scratch assay was performed in U87MG to evaluate the effect of GL, Lf and Lf-GL treatment on the cancer cell migration. Cells were seeded in 100 mm-cell culture dishes, 2.0 × 10^6 cells per dish. After the cells were grown to 80% confluence, a scratch was made through the cell monolayer with a 200 μL pipet tip, and it was washed with PBS. Photographs (4 ×) were taken in each of three different scratch areas, and their location on the dish was marked. GL (50 × 10^–6 M), Lf (5 × 10^–6 M) or Lf-GL (1 × 10^–6 M) dissolved in serum-free medium were added to cells with or without HMGB1 protein (0.1 μg mL^−1). Then, cells were incubated for 24 h, and the same areas were re-photographed. Migration distances were examined using the scale bar."}, "[3]": {"test_system": "HUVEC", "assay": "HMGB1-mediated HUVEC proliferation (CCK-8)", "type": "cell-based, human", "protocol": "as §1"}, "[4]": {"test_system": "HUVEC", "assay": "Capillary tube formation assay", "type": "cell-based, human", "conditions": "HMGB1 (+) control vs HMGB1 (-) control, 24 h", "protocol": "A 24-well plate was coated with of Matrigel® (200 μL, Corning, NY, USA) and was incubated for 30 min in 37℃ incubators. HUVECs were seeded upon a coated Matrigel® 24-well plate (seeding density: 5.0 × 10^4 cells per well). Subsequently, cells were treated with GL (50 × 10^–6 M), Lf (5 × 10^–6 M) or Lf-GL (1 × 10^–6 M) and incubated for 24 h. Then, Calcein AM was added to each well, and the formation of tubes was observed using fluorescence microscopy. These tubes were quantified using Image J."}, "[5]": {"test_system": "ERK phosphorylation", "assay": "Western blot of phospho-ERK/ERK in HUVEC", "type": "cell-based, human", "conditions": "24 h of treatment with HMGB1", "protocol": "Total cellular protein concentration was determined using a BCA Protein Assay Kit (Pierce, Rockford, IL, USA). Equal amounts of protein from cell lysates were loaded onto a 12% sodium dodecyl sulfate–polyacrylamide gel. After electrophoresis, proteins were transferred to polyvinylidene fluoride membranes blocked with 5% bovine serum albumin for 1 h at room temperature and were diluted 1:500 with the indicated primary antibodies (rabbit anti-ERK1/2, anti-phospho-ERK1 and β-actin antibodies [Cell Signaling Technology, INC.]). Then, the membrane was washed 3 times for 15 min with tris-buffered saline containing Tween 20 and was incubated with HRP-conjugated secondary antibody for 1 h at room temperature. After washing three times for another 15 min with Tris-buffered saline with Tween 20, immune complexes were detected with an enriched chemiluminescent reagent (EZ-Western Lumi Femto, DoGen, South Korea) and staining was quantified by densitometry analysis using an Alpha Imager 2200."}, "[6]": {"test_system": "rat aortic rings", "assay": "Aorta ring assay (ex vivo)", "conditions": "VEGF 25 ng mL^−1 positive control, 14 days", "protocol": "An aorta ring assay was conducted to confirm the anti-angiogenesis effect of Lf-GL ex vivo. A 48-well plate was coated with of Matrigel® (100 μL) and was incubated for 30 min or more in 37℃ incubators. In the meantime, thoracic aortas of 7-week-old male SD rats were excised. Then, the fat layer and outer membrane were removed, and rings approximately 1 mm in length were prepared. The prepared aortic rings were seeded on a coated Matrigel® of 48-well plate and were covered with Matrigel®. (100 μL) Subsequently, the aortic ring was treated with a control (with or without 25 ng mL^−1 of VEGF) or different concentrations of Lf-GL complex. Medium was changed once every two days. Fourteen days after treatment, optical images of sprouting microvessels were obtained using microscopy magnification (× 40 or × 100). Sprouting microvessel area was quantified using Image J and Sigma Plot.\nFig. S14. Significant inhibitory effect of Lf-GL in aortic ring angiogenesis. Optical images of vessel regression in aortic ring with Lf-GL treatment. Aortic ring assay was carried out in 48-well plate coated with Matrigel. VEGF-non treated control represents that aortic ring incubated with normal medium. VEGF-treated control represents that aortic ring incubated with 25 ng mL^-1 VEGF-conditioned medium. […]"}}}
{"substance": "HMGB1: High-mobility group box-1 protein added to cells as stimulus", "values": [{"measurement": "Tumor growth compared to controls not treated with HMGB1", "setting": "[1]; HMGB1 0.1 μg mL^−1, day 1", "result": "110.7 ± 8.2", "unit": "%"}, {"measurement": "Tumor growth compared to controls not treated with HMGB1", "setting": "[1]; HMGB1 0.1 μg mL^−1, day 2", "result": "133.4 ± 1.3", "unit": "%"}, {"measurement": "Tumor growth compared to controls not treated with HMGB1", "setting": "[1]; HMGB1 0.1 μg mL^−1, day 3", "result": "140.7 ± 5.2", "unit": "%"}, {"measurement": "Migration distance more than HMGB1-nontreated cell", "setting": "[2]", "result": "121.3 ± 42.8", "unit": "μm"}, {"measurement": "Angiogenic potential (viability) of HUVEC vs control", "setting": "[3]; HMGB1 1 μg mL^−1, day 1", "result": "108.2 ± 7.9", "unit": "%"}, {"measurement": "Angiogenic potential (viability) of HUVEC vs control", "setting": "[3]; HMGB1 1 μg mL^−1, day 2", "result": "137.9 ± 12.3", "unit": "%"}, {"measurement": "Angiogenic potential (viability) of HUVEC vs control", "setting": "[3]; HMGB1 1 μg mL^−1, day 3", "result": "169.8 ± 18.1", "unit": "%"}, {"measurement": "Increase of newly generated micro-vessels (tube number)", "setting": "[4]", "result": "21.0 ± 2.1", "unit": "%"}, {"measurement": "Increase of p-ERK level compared to non-treatment", "setting": "[5]", "result": 2.3, "unit": "times"}]}
{"substance": "VEGF [reference compound]", "values": [{"measurement": "Increase of outgrowth of endothelial tubules", "setting": "[6]", "result": "51.1 ± 105.2", "unit": "%"}]}
